Source: patent publication US20250100968A1, “BICYCLIC-HETEROCYCLE DERIVATIVES AND RELATED USES” (CENTESSA PHARMACEUTICALS (UK) LIMITED, priority 2022, published 2025)

Target: T1, human orexin type 2 receptor (hOX2R) (Homo sapiens, UniProt O43614)
T1 sequence (O43614 1-444): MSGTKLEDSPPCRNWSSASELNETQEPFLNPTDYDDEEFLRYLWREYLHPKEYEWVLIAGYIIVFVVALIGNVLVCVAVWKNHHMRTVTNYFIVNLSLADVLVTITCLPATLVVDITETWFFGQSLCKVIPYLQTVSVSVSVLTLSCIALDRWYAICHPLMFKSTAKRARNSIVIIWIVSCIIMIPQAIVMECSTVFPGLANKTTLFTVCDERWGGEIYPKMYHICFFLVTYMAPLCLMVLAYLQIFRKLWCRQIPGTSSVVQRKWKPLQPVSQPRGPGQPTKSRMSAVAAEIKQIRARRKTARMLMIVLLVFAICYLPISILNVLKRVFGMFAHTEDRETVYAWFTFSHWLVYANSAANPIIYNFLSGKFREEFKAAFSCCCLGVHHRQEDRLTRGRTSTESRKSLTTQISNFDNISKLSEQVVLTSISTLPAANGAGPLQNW
Test: cell-based
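Also: agonist activity in CHO cells stably expressing hOX2R, intracellular Ca2+ via Calcium 5 dye fluorescence area over 2 min, buffer-only as 0% and 10 nM orexin A as 100%.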

Compound | EC50 [nM]
C[C@@H](C#N)C(=O)N1CC2(CC2)[C@H](NS(=O)(=O)CF)[C@@H]1Cc1cccc(-c2cc(F)cc(F)c2)c1F [compound 63, N-((6S,7S)-5-((S)-2-cyanopropanoyl)-6-((2,3′,5′-trifluoro-[1,1′-biphenyl]-3-yl)methyl)-5-azaspiro[2.4]heptan-7-yl)-1-fluoromethanesulfonamide] | 1 to 10
N#C[C@@]1(C(=O)N2CC3(CC3)[C@H](NS(=O)(=O)CF)[C@@H]2Cc2cccc(-c3cccc(F)c3)c2F)CCO1 [compound 45, N-((6S,7S)-5-((R)-2-cyanooxetane-2-carbonyl)-6-((2,3′-difluoro-[1,1′-biphenyl]-3-yl)methyl)-5-azaspiro[2.4]heptan-7-yl)-1-fluoromethanesulfonamide] | 1 to 10
C[C@@H](F)C(=O)N1CC2(CC2)[C@H](NS(=O)(=O)C(F)F)[C@@H]1Cc1cccc(-c2cc(F)cc(F)c2)c1F [compound 31, 1,1-difluoro-N-((6S,7S)-5-((R)-2-fluoropropanoyl)-6-((2,3′,5′-trifluoro-[1,1′-biphenyl]-3-yl)methyl)-5-azaspiro[2.4]heptan-7-yl)methanesulfonamide] | 1 to 10
CC(C)(F)CNC(=O)N1CC2(CC2)[C@H](NS(=O)(=O)C(F)F)[C@@H]1Cc1cccc(-c2cccc(F)c2)c1F [compound 71, (6S,7S)-6-((2,3′-difluoro-[1,1′-biphenyl]-3-yl)methyl)-7-((difluoromethyl)sulfonamido)-N-(2-fluoro-2-methylpropyl)-5-azaspiro[2.4]heptane-5-carboxamide] | 0.0631 to 1
C[C@H](C#N)C(=O)N1CC2(CC2)[C@H](NS(=O)(=O)C(F)F)[C@@H]1Cc1cccc(-c2cc(F)cc(F)c2)c1F [compound 49, N-((6S,7S)-5-((R)-2-cyanopropanoyl)-6-((2,3′,5′-trifluoro-[1,1′-biphenyl]-3-yl)methyl)-5-azaspiro[2.4]heptan-7-yl)-1,1-difluoromethanesulfonamide] | 1 to 10
C[C@@H](NC(=O)N1CC2(CC2)[C@H](NS(=O)(=O)CF)[C@@H]1Cc1cc(F)cc(-c2ccccc2)c1F)C(F)F [compound 88, (6S,7S)-6-((2,5-difluoro-[1,1′-biphenyl]-3-yl)methyl)-N-((R)-1,1-difluoropropan-2-yl)-7-((fluoromethyl)sulfonamido)-5-azaspiro[2.4]heptane-5-carboxamide] | 1 to 10
N#CC1(C(=O)N2CC3(CC3)[C@H](NS(=O)(=O)CF)[C@@H]2Cc2cccc(-c3ccccc3)c2F)COC1 [compound 34, N-((6S,7S)-5-(3-cyanooxetane-3-carbonyl)-6-((2-fluoro-[1,1′-biphenyl]-3-yl)methyl)-5-azaspiro[2.4]heptan-7-yl)-1-fluoromethanesulfonamide] | 0.0631 to 1
C[C@@H](F)S(=O)(=O)N[C@@H]1[C@H](Cc2cc(F)cc(-c3ccccc3)c2F)N(C(=O)[C@H]2CCO2)CC12CC2 [compound 55, (S)-N-((6S,7S)-6-((2,5-difluoro-[1,1′-biphenyl]-3-yl)methyl)-5-((R)-oxetane-2-carbonyl)-5-azaspiro[2.4]heptan-7-yl)-1-fluoroethane-1-sulfonamide] | 1 to 10
N#CC1(C(=O)N2CC3(CC3)[C@H](NS(=O)(=O)CF)[C@@H]2Cc2cc(F)cc(-c3ccccc3)c2F)CCC1 [compound 13, N-((6S,7S)-5-(1-cyanocyclobutane-1-carbonyl)-6-((2,5-difluoro-[1,1′-biphenyl]-3-yl)methyl)-5-azaspiro[2.4]heptan-7-yl)-1-fluoromethanesulfonamide] | 0.0631 to 1
N#C[C@]1(C(=O)N2CC3(CC3)[C@H](NS(=O)(=O)CF)[C@@H]2Cc2cccc(-c3ccccc3)c2F)C[C@H](F)C1 [compound 54, N-((6S,7S)-5-((1r,3S)-1-cyano-3-fluorocyclobutane-1-carbonyl)-6-((2-fluoro-[1,1′-biphenyl]-3-yl)methyl)-5-azaspiro[2.4]heptan-7-yl)-1-fluoromethanesulfonamide] | 0.0631 to 1
C[C@@](O)(C(=O)N1CC2(CC2)[C@H](NS(=O)(=O)CF)[C@@H]1Cc1cccc(-c2ccccc2)c1F)C1CC1 [compound 2, N-((6S,7S)-5-((S)-2-cyclopropyl-2-hydroxypropanoyl)-6-((2-fluoro-[1,1′-biphenyl]-3-yl)methyl)-5-azaspiro[2.4]heptan-7-yl)-1-fluoromethanesulfonamide] | 10 to 100
C[C@@](O)(CF)C(=O)N1CC2(CC2)[C@H](NS(=O)(=O)CF)[C@@H]1Cc1cccc(-c2cc(F)cc(F)c2)c1F [compound 83, 1-fluoro-N-((6S,7S)-5-((S)-3-fluoro-2-hydroxy-2-methylpropanoyl)-6-((2,3′,5′-trifluoro-[1,1′-biphenyl]-3-yl)methyl)-5-azaspiro[2.4]heptan-7-yl)methanesulfonamide] | 1 to 10
CC(F)(F)CNC(=O)N1CC2(CC2)[C@H](NS(=O)(=O)CF)[C@@H]1Cc1cccc(-c2cc(F)cc(F)c2)c1F [compound 38, (6S,7S)-N-(2,2-difluoropropyl)-7-((fluoromethyl)sulfonamido)-6-((2,3′,5′-trifluoro-[1,1′-biphenyl]-3-yl)methyl)-5-azaspiro[2.4]heptane-5-carboxamide] | 1 to 10

Now from value to molecule:

EC50 [nM] | Compound
1 to 10 | C[C@@H](C#N)C(=O)N1CC2(CC2)[C@H](NS(=O)(=O)C(F)F)[C@@H]1Cc1cccc(-c2ccccc2)c1F [compound 41, N-((6S,7S)-5-((S)-2-cyanopropanoyl)-6-((2-fluoro-[1,1′-biphenyl]-3-yl)methyl)-5-azaspiro[2.4]heptan-7-yl)-1,1-difluoromethanesulfonamide]
1 to 10 | C[C@H](C#N)C(=O)N1CC2(CC2)[C@H](NS(=O)(=O)CF)[C@@H]1Cc1cccc(-c2cc(F)cc(F)c2)c1F [compound 62, N-((6S,7S)-5-((R)-2-cyanopropanoyl)-6-((2,3′,5′-trifluoro-[1,1′-biphenyl]-3-yl)methyl)-5-azaspiro[2.4]heptan-7-yl)-1-fluoromethanesulfonamide]
1 to 10 | COC1CN(C(=O)N2CC3(CC3)[C@H](NS(=O)(=O)CF)[C@@H]2Cc2cc(F)cc(-c3ccccc3)c2F)C1 [compound 59, N-((6S,7S)-6-((2,5-difluoro-[1,1′-biphenyl]-3-yl)methyl)-5-(3-methoxyazetidine-1-carbonyl)-5-azaspiro[2.4]heptan-7-yl)-1-fluoromethanesulfonamide]
0.0631 to 1 | CC[C@@](C)(O)C(=O)N1CC2(CC2)[C@H](NS(=O)(=O)CF)[C@@H]1Cc1cccc(-c2cccc(F)c2)c1F [compound 30, N-((6S,7S)-6-((2,3′-difluoro-[1,1′-biphenyl]-3-yl)methyl)-5-((R)-2-hydroxy-2-methylbutanoyl)-5-azaspiro[2.4]heptan-7-yl)-1-fluoromethanesulfonamide]
0.0631 to 1 | C[C@](O)(CF)C(=O)N1CC2(CC2)[C@H](NS(=O)(=O)C2(F)CC2)[C@@H]1Cc1cccc(-c2ccccc2)c1F [compound 91, 1-fluoro-N-((6S,7S)-5-((R)-3-fluoro-2-hydroxy-2-methylpropanoyl)-6-((2-fluoro-[1,1′-biphenyl]-3-yl)methyl)-5-azaspiro[2.4]heptan-7-yl)cyclopropane-1-sulfonamide]
1 to 10 | N#C[C@]1(C(=O)N2CC3(CC3)[C@H](NS(=O)(=O)C(F)F)[C@@H]2Cc2cccc(-c3cccc(F)c3)c2F)CCO1 [compound 53, N-((6S,7S)-5-((S)-2-cyanooxetane-2-carbonyl)-6-((2,3′-difluoro-[1,1′-biphenyl]-3-yl)methyl)-5-azaspiro[2.4]heptan-7-yl)-1,1-difluoromethanesulfonamide]
0.0631 to 1 | C[C@H](F)S(=O)(=O)N[C@@H]1[C@H](Cc2cc(F)cc(-c3ccccc3)c2F)N(C(=O)[C@H]2CCO2)CC12CC2 [compound 56, (R)-N-((6S,7S)-6-((2,5-difluoro-[1,1′-biphenyl]-3-yl)methyl)-5-((R)-oxetane-2-carbonyl)-5-azaspiro[2.4]heptan-7-yl)-1-fluoroethane-1-sulfonamide]
0.0631 to 1 | N#C[C@]1(C(=O)N2CC3(CC3)[C@H](NS(=O)(=O)CF)[C@@H]2Cc2cccc(-c3cc(F)ccc3F)c2F)CCO1 [compound 80, N-((6S,7S)-5-((S)-2-cyanooxetane-2-carbonyl)-6-((2,2′,5′-trifluoro-[1,1′-biphenyl]-3-yl)methyl)-5-azaspiro[2.4]heptan-7-yl)-1-fluoromethanesulfonamide]
1 to 10 | C[C@@H](C#N)C(=O)N1CC2(CC2)[C@H](NS(=O)(=O)C(F)F)[C@@H]1Cc1cccc(-c2cc(F)cc(F)c2)c1F [compound 70, N-((6S,7S)-5-((S)-2-cyanopropanoyl)-6-((2,3′,5′-trifluoro-[1,1′-biphenyl]-3-yl)methyl)-5-azaspiro[2.4]heptan-7-yl)-1,1-difluoromethanesulfonamide]
1 to 10 | CC(F)(F)CNC(=O)N1CC2(CC2)[C@H](NS(=O)(=O)C(F)F)[C@@H]1Cc1cccc(-c2cc(F)cc(F)c2)c1F [compound 39, (6S,7S)-7-((difluoromethyl)sulfonamido)-N-(2,2-difluoropropyl)-6-((2,3′,5′-trifluoro-[1,1′-biphenyl]-3-yl)methyl)-5-azaspiro[2.4]heptane-5-carboxamide]
1 to 10 | N#C[C@]1(C(=O)N2CC3(CC3)[C@H](NS(=O)(=O)CF)[C@@H]2Cc2cc(F)cc(-c3ccccc3)c2F)C[C@@H](F)C1 [compound 90, N-((6S,7S)-5-((1s,3R)-1-cyano-3-fluorocyclobutane-1-carbonyl)-6-((2,5-difluoro-[1,1′-biphenyl]-3-yl)methyl)-5-azaspiro[2.4]heptan-7-yl)-1-fluoromethanesulfonamide]
